Experiments:
[1] = tested on: PC-3 prostate cancer cells; experiment: Prostate cancer cell growth inhibition, CCK-8 assay; assay type: cell-based, human; details: various concentrations; 24 hours and 48 hours; FIG. 1
Procedure: PC-3, a human-derived prostate cancer cell line, was cultured with RPMI1640 (10% fetal bovine serum, 1% Penicillin Streptomycin) culture medium at 37° C., 5% CO2 condition. All cells in the experiment were subcultured when they reached a confluency of approximately 80% to 90%, and only cells that had not passed 20 passages were used.
After culturing, 10 L CCK-8 reagent was added and the absorbance was measured after 1 hour. The absorbance was measured at 450 nm using a microplate reader [BMG Labtech (Offenburg, Germany)].

[2] = tested on: Liver cancer cells Huh-7; experiment: Liver cancer cell growth inhibition, CellTiter-Glo Luminescent Cell Viability Assay; assay type: cell-based; details: various concentrations; day 1; FIG. 6
Procedure: In addition, an analysis of liver cancer growth inhibitory activity was performed. Liver cancer cells Huh-7 cells were dispensed in a 96-well plate at 1×10^4 cells/ml, and after 20 hours, PCI34051, Example 27, and Example 35 were added at various concentrations, and cultured for 24 and 48 hours at 37° C. in a 5% CO2 atmosphere. After culturing, 100 l CellTiter-Glo Luminescent Cell Viability Assay reagent was added and the luminescence signal was measured after 0.5-1 hour. The luminescence signal was measured using IVIS [PerkinElmer, (Waltham, USA)].

[3] = tested on: PC-3 cell lines; experiment: Prostate cancer model, PC-3 cell lines subcutaneously transplanted into nude mice; assay type: in vivo; details: 50 mg/kg orally once a day
Procedure: (§1) A prostate cancer model was established by subcutaneously transplanting PC-3 cell lines into nude mice, and the mice were divided into two groups (group 1: vehicle administration group (10% DSMO, 30% PEG400, 60% DW), group 2: 50 mg/kg Example 27 compound administration group). The drug was administered orally once a day for 12 times. To evaluate the therapeutic efficacy, tumors were […] before drug administration and on days 3, 6, 8, 10, 12, and 14 after drug administration, and tumor volumes were measured. Tumor volume (mm^3) was calculated as follows (tumor volume (mm^3)=(A×B^2)/2, where A=tumor long axis, B=tumor short axis), and the results are shown in FIG. 2.
Meanwhile, on day 12 of drug administration, the tumor was removed and its weight was measured, the results are shown in FIG. 3, and a photograph of the removed tumor was taken and shown in FIG. 4.

[4] = tested on: Huh-7 cell lines; experiment: Liver cancer model, Huh-7 cell lines subcutaneously transplanted into nude mice; assay type: in vivo; details: 50 mg/kg once a day
Procedure: In addition, a liver cancer model was established by subcutaneously transplanting Huh-7 cell lines into nude mice. After establishing the liver cancer model, the mice were divided into two groups (group 1: vehicle administration group, group 2: 50 mg/kg Example 27 compound administration group). The drug was administered once a day for 12 times. To evaluate therapeutic efficacy, tumor volume was measured before drug administration and on days 4, 7, 10, 13, and 15 after drug administration. Tumor volume (mm^3) was calculated as follows (tumor volume (mm^3)=(A×B^2)/2, where A=tumor long axis, B=tumor short axis). Body weight was measured before administration and on days 4, 7, 10, 13, and 15 after drug administration during the drug administration period. Tumor was excised on day 15 after drug treatment and body weight was measured.

[5] = Body weight of mice during drug administration, prostate cancer model; assay type: in vivo, nude mice; details: 50 mg/kg orally once a day; drug administration period; FIG. 5
Procedure: as §1

[6] = target: T1, HDAC6 (Homo sapiens, UniProt Q9UBN7); experiment: Selective inhibitory effect, HDAC Fluorogenic assay kit, HDAC6; details: read-out: HDAC6 enzyme activity (%)
T1 sequence (Q9UBN7 1-1215): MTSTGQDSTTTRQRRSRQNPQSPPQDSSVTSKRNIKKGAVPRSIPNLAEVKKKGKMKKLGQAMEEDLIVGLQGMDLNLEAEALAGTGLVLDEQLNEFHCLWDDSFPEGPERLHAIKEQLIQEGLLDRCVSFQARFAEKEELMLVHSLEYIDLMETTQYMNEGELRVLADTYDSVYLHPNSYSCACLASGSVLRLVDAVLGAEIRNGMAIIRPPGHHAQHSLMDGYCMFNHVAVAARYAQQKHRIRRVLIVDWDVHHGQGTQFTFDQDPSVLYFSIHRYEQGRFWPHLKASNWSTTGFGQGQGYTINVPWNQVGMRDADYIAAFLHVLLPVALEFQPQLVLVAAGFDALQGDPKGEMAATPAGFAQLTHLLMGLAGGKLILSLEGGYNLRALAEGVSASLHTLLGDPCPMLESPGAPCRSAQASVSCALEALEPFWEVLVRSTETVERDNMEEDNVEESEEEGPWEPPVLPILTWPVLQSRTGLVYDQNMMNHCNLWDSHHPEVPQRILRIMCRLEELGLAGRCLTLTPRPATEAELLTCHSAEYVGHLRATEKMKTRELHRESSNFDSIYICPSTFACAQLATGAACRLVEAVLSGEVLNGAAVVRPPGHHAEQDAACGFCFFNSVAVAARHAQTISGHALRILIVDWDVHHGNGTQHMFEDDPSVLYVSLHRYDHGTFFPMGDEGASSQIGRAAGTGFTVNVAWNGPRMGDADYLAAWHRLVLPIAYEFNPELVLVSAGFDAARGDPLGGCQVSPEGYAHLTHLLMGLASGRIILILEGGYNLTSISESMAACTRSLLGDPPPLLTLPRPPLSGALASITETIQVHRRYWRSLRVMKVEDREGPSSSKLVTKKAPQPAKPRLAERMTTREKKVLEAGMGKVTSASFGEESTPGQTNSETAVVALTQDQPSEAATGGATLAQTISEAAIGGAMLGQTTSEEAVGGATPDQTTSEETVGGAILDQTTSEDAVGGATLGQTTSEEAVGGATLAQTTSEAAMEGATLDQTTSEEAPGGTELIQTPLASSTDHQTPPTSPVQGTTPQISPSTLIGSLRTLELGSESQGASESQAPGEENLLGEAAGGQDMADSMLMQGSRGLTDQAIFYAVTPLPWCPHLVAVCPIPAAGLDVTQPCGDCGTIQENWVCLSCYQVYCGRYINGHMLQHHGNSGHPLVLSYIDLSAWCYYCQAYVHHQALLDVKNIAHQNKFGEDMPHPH
Procedure: For analysis, HDAC substrate 3 was diluted in buffer to a concentration of 200 μM and used in HDAC 1, 2, 3, 6, and 10 assays, HDAC substrate 2A was diluted in buffer to a concentration of 200 μM and used in HDAC 4, 7, 9, and 11 assays, HDAC substrate 2A was diluted in buffer to a concentration of 20 μM and used in HDAC 8 assays. For the HDAC 11 assay, a dedicated buffer included in the kit was used separately, and the same buffer was used for the remaining assays. The compound of the Example was diluted to 1 mM (1% DMSO concentration) using DMSO to obtain a final concentration of 10 μM, and prepared by diluting 1/10 with assay buffer. In a 96-well black round-bottom plate, 5 μL of the diluted compound of the Example, 5 μL of the diluted HDAC substrate, 5 μL of BSA (1 mg/ml), 5 μL of the HDAC enzyme diluted to the appropriate concentration, and 30 μL of assay buffer were added, and the enzyme reaction was performed at 37° C. for 30 minutes. […] Afterwards, 50 μL of 2×HDAC developer was added to each well. After reacting for 15 minutes at room temperature, the fluorescence values at excitation wavelengths of 350-380 nm and emission wavelengths of 440-460 nm were measured using a microplate reader (Synergy Neo).

## Cc1cc2nc(C(=O)NCCc3c[nH]c4ccc(O)cc34)c(=O)n(C[C@H](O)[C@H](O)[C@H](O)CO)c2cc1C [Example 27, N-(2-(5-hydroxy-1H-indol-3-yl)ethyl)-6,7-dimethyl-3-oxo-4-((2S,3S,4R)-2,3,4,5-tetrahydroxypentyl)-3,4-dihydroquinoxaline-2-carboxamide]
[1]
  PC-3 cancer cell viability inhibition rate compared with PCI-34051: superior to that of PCI-34051
  PC-3 cell viability (in words): effectively reduced the viability of prostate cancer cells in a concentration- and time-dependent manner
[2]
  Huh-7 cell viability (in words): concentration-dependent inhibition of cancer cell viability
[3]; 12 times, up to day 14, p<0.05 vs vehicle, FIG. 2
  tumor volume (in words): significantly reduced tumor volume growth rate compared to group 1
[3]; tumor removed on day 12, p<0.0005 vs vehicle, FIG. 3
  tumor weight (in words): vehicle administration group (group 1) had a significantly higher tumor weight than the Example 27 compound administration group
[4]; 12 times, up to day 15, p<0.005 vs vehicle, FIG. 7A
  tumor volume (in words): tumor growth inhibitory effect
[4]; tumor removed on day 15, p<0.0005 vs vehicle, FIGS. 7B and 7C
  tumor weight (in words): tumor weight of the vehicle group was significantly higher than that of the Example 27 compound administration group
[5]
  body weight of the mice (in words): no rapid weight loss was confirmed
[6]
  remaining activity at 10 µM: 43.7%

Source: patent publication US20250214947A1, “3,4-DIHYDROQUINOXALINE-2-CARBOXIMIDE DERIVATIVE COMPOUND AND PHARMACEUTICAL COMPOSITION COMPRISING SAME FOR PREVENTING OR TREATING CANCER DISEASE” (Cureverse Incorporated, priority 2022, published 2025)
